{"source": "patent US4005214A", "about": "(Hoffmann-La Roche Inc., priority 1974, dated 1977)", "key": {"[1]": {"details": "pH of about 9; cited from earlier work"}, "[2]": {"assay": "acute toxicity in mice (LD 50)", "type": "in vivo", "details": "mouse, in vivo, iv, intravenous administration, read-out: LD 50 (Lethal Dose) i.v."}, "[3]": {"system": "mice", "assay": "acute toxicity in mice (LD 50)", "type": "in vivo", "details": "for LD 50 (Lethal Dose) s.c.: subcutaneous administration"}, "[4]": {"system": "Escherichia coli", "assay": "activity (CD 50) against Escherichia coli upon subcutaneous administration to mice", "type": "in vivo"}}, "note": "Where a name gives a salt, the structure may show the parent alone."}
{"smiles": "CC1(C)S[C@@H]2[C@H](NC(=O)[C@H](N)c3ccc(O)cc3)C(=O)N2[C@H]1C(=O)O", "note": "[Amoxicillin, D-(-)-alpha-amino-parahydroxybenzyl penicillin]", "values": [{"measurement": "stability at high pH", "setting": "[1]", "result": "very unstable"}]}
{"smiles": "CC1(C)S[C@@H]2[C@H](NC(=O)[C@H](N)c3ccc(O)cc3)C(=O)N2[C@H]1C(=O)O", "note": "[X, choline salt of amoxicillin]", "values": [{"measurement": "LD50", "setting": "[2]", "result": "250 to 500", "unit": "mg/kg"}, {"measurement": "LD 50 (Lethal Dose) s.c.", "setting": "[3]", "result": "2000 to 4000", "unit": "mg/kg"}, {"measurement": "ED50", "setting": "[4]; sc, read-out: CD 50 (Curative Dose)", "result": 5.9, "unit": "mg/kg"}]}
{"smiles": "CC1(C)S[C@@H]2[C@H](NC(=O)[C@H](N)c3ccc(O)cc3)C(=O)N2[C@H]1C(=O)O", "note": "[Y, N-methyl-D-glucamine salt of amoxicillin]", "values": [{"measurement": "LD 50 (Lethal Dose) i.v.", "setting": "[3]; intravenous administration", "result": "500 to 1000", "unit": "mg/kg"}, {"measurement": "LD 50 (Lethal Dose) s.c.", "setting": "[3]", "result": "> 5000", "unit": "mg/kg"}, {"measurement": "CD 50 (Curative Dose)", "setting": "[4]", "result": 5.0, "unit": "mg/kg"}]}
